From paper PMC12193833, “Toxicity Assessment and Antifungal Potential of Copper(II) and Silver(I) Complexes with 1,10-Phenanthroline-5,6-dione Against Drug-Resistant Clinical Isolates of Cryptococcus gattii and Cryptococcus neoformans” (Journal of Fungi, 2025)
Where two headings read alike, the source gives them in different places.

Columns and labels:
[1] = system: C. neoformans clinical isolates; experiment: MIC/MFC of test compounds, microdilution; type: cell-based, Cryptococcus neoformans; settings: for MIC: read-out: MIC
Excerpt: (§1) Six clinical isolates belonging to the Cryptococcus genus were obtained from patients who attended the Instituto Nacional de Infectologia Evandro Chagas (INI), Fundação Oswaldo Cruz (FIOCRUZ), and were kindly provided by Dr. Rodrigo Almeida-Paes (INI-FIOCRUZ). To comply with ethical standards and institutional agreements between UFRJ and FIOCRUZ, patient data were not disclosed. In this sense, the C. neoformans isolates were designated CFP00213 (213), CFP00223 (223), and CFP00350 (350), while the C. gattii isolates were labeled CFP00023 (23), CFP00025 (25), and CFP00027 (27). Before each experiment, an aliquot of the culture was transferred from Sabouraud dextrose agar (2% glucose, 1% peptone, and 0.5% yeast extract) to RPMI 1640 medium (Sigma-Aldrich, St. Louis, MO, USA), pH 7.2, buffered with 0.165 M MOPS (Sigma-Aldrich, St. Louis, MO, USA). RPMI medium induces the expression of capsular polysaccharides, the primary virulence factor of Cryptococcus cells. The cultures were incubated at 37 °C for 48 h to promote cell proliferation, stimulate metabolic activation, and enhance capsular development. Yeast cell counts were determined using a Neubauer chamber.
(§2) Following MIC determination, the MFC was assessed by inoculating 10 µL from wells showing no visible fungal growth onto Sabouraud dextrose agar. […] To further support and strengthen the evidence of the anti-Cryptococcus activity of the Cu-phendione and Ag-phendione complexes, we additionally performed MIC/MFC assays using well-characterized standard reference strains: ATCC 28957, H99, T1444 (all C. neoformans), and R265 (C. gattii).

[2] = system: C. gattii reference strain R265; experiment: MIC of complexes against reference strain; type: cell-based, Cryptococcus gattii
Excerpt: (§3) To further support and strengthen the evidence of the anti-Cryptococcus activity of the Cu-phendione and Ag-phendione complexes, we additionally performed MIC/MFC assays using well-characterized standard reference strains: ATCC 28957, […], […] (all C. neoformans), and […]).

Sheep erythrocytes = system: Sheep erythrocytes
Description: To evaluate the hemolytic activity of the test compounds, the microdilution method was performed in PBS using 96-well cell culture plates, as described by Evans et al.. PBS containing the test compounds (phendione, Cu-phendione, and Ag-phendione) at varying concentrations (1.9–62.5 µM) was added to the wells. Sheep erythrocytes (Cultilab, Rio de Janeiro, RJ, Brazil) were diluted in PBS to a final concentration of 2% (approximately 2 × 10^8 erythrocytes) and added to each well. The final volume of each well was 200 μL. A negative control (PBS and blood) and a positive control (PBS, blood, and 1% Triton X-100) were also included. The plates were incubated at 37 °C for 24 h, then centrifuged at 500× g for 10 min at 4 °C. Following centrifugation, 100 μL of the supernatant from each well was transferred to a new 96-well microplate, and absorbance was measured using a microplate reader ([…] SkyHigh; Thermo Scientific, Waltham, MA, USA) at 415 nm. […] The average absorbance of the positive control was set as 100% hemolysis, and the percentage hemolysis of the other groups was calculated accordingly. The selectivity index (SI) was determined using the following equation: SI = erythrocyte CC50/Cryptococcus MIC.

[3] = system: C. neoformans reference strains (ATCC 28957, H99, T1444); experiment: MIC of complexes against reference strains; type: cell-based, Cryptococcus neoformans
Excerpt: as §3

[4] = system: hemocytes of G. mellonella larvae; type: in vivo, Galleria mellonella; settings: 24 h
Description: The hemocyte density in the hemolymph of larvae inoculated with both complexes was assessed to evaluate potential immunological changes in G. mellonella. […] To analyze hemocyte density, a ventral caudal incision was made between the last prolegs of each larva using a surgical scalpel, and 10 μL of hemolymph was collected. The hemolymph was then diluted 1:100 in 990 μL of an anticoagulant buffer solution (98 mM NaOH, 186 mM NaCl, 17 mM EDTA, and 41 mM citric acid, pH 4.5). The number of hemocytes in each dilution was subsequently counted using a Neubauer chamber (Thermo Fisher Scientific, Waltham, MA USA).

[5] = system: Galleria mellonella larvae; experiment: In vivo chronic toxicity, multiple treatment; settings: for Alterations in stress indicators (melanization, cocoon formation) / Chronic toxicity (larval survival monitored over seven days): 62.5 µM daily for five consecutive days; for Larval survival: daily inoculation 62.5 µM for up to five days
Description: (§4) In this set of experiments, G. mellonella larvae weighing approximately 0.2–0.3 g and displaying clear, uniform coloration were used. The larvae were inoculated (10 µL/larva) using an insulin syringe (BD Ultra-Fine, Franklin Lakes, NJ, USA) at the last left proleg. […] We also assessed their coloration through visual analysis as an indicator of stress levels. Throughout the experiments, the larvae were maintained at 37 °C [19, 42]. Two distinct treatment protocols were designed to evaluate the effects of the test compounds on larval survivability, as detailed below.
For the chronic toxicity analysis, larvae were inoculated daily for five consecutive days with the test complexes (Cu-phendione or Ag-phendione) at a high concentration of 62.5 μM. Each group consisted of 10 larvae, while the control group received only sterile PBS with 4% DMSO.

mice = system: mice; design: method as in doi:10.1039/c2tx00010e; settings: cited from earlier work; for Deaths, behavioral, dietary or body weight changes: 45 mg/kg daily for five days plus seven days observation; for AST and ALT activities vs control: 45 mg/kg daily for five days
hamsters = system: hamsters; design: method as in doi:10.1016/j.ejmcr.2022.100093; settings: 1 mg/kg five times per week for nine weeks; cited from earlier work
[6] = system: C. gattii clinical isolates; experiment: MIC/MFC of test compounds, microdilution; type: cell-based, Cryptococcus gattii; settings: for MIC: read-out: MIC
Excerpt: as §1, §2

[7] = system: Galleria mellonella larvae; experiment: In vivo acute toxicity, single treatment; settings: single inoculation; for Larval survival: 125–1000 µM, 10 µL/larva, 37 °C
Description: as §4
For the acute toxicity analysis, the test compounds were administered to the larvae in a single inoculation at concentrations ranging from 1000 to 125 μM. Each group consisted of 10 larvae, while the control group received only sterile PBS with 4% DMSO. […] The SI was calculated using the following equation: SI = G. mellonella CC50/Cryptococcus MIC.

[8] = system: C. neoformans or C. gattii; experiment: Stability of antifungal activity (MIC repeated every six months over two years); type: cell-based, Cryptococcus neoformans and Cryptococcus gattii; settings: same DMSO solution, room temperature, protected from light, MIC every six months for 730 days
Excerpt: To evaluate the stability of the antifungal activity of the test complexes, the MIC assay was repeated every six months over a two-year period using the same Ag-phendione or Cu-phendione solution. The solutions were stored at room temperature and protected from light to maintain their chemical integrity.

[9] = all C. neoformans clinical isolates
[10] = all C. gattii clinical isolates

SMILES	MFC ([1]; C. neoformans isolate 213) [µM]	MIC ([1]; C. neoformans isolate 213) [µM]	MFC ([1]; C. neoformans isolate 223) [µM]	MIC ([1]; C. neoformans isolate 223) [µM]	MFC ([1]; C. neoformans isolate 350) [µM]	MIC ([1]; C. neoformans isolate 350) [µM]	MFC [1, 9] [µM]	MIC [1, 9] [µM]	MIC [2] [µM]	MIC ([3]; C. neoformans ATCC 28957) [µM]	MIC ([3]; C. neoformans H99) [µM]	MIC ([3]; C. neoformans T1444) [µM]	Alterations in stress indicators (melanization, cocoon formation) [5]	Chronic toxicity (larval survival monitored over seven days) [5]	Larval survival [5] [%]	Deaths, behavioral, dietary or body weight changes (mice)	AST and ALT activities vs control (mice)	Acute toxicity: highest dose with 100% tolerance (mice) [mg/kg]	Deaths, changes in behavior, diet or body weight (hamsters)	Urea, creatinine, AST, ALT and alkaline phosphatase levels vs control (hamsters)	other results
O.O.O.O.O=C1C(=O)c2cccnc2-c2ncccc21.O=C1C(=O)c2cccnc2-c2ncccc21.O=C1C(=O)c2cccnc2-c2ncccc21.[Cu+2].[O-][Cl+3]([O-])([O-])[O-].[O-][Cl+3]([O-])([O-])[O-] [Cu-phendione, [Cu(phendione)3](ClO4)2·4H2O]	50	3.125	50	3.125	50	3.125	50	3.125	0.19	1.56	0.78	0.78	no alterations	non-toxic	100	no deaths or behavioral, dietary, or body weight changes	No significant differences	45	no deaths or changes in behavior, diet, or body weight	no differences	CC50 (Sheep erythrocytes): > 62.5 µM; Hemocyte density vs PBS control ([4]; single inoculation 15.625 µM): significant increase in hemocyte density; Hemocyte density vs PBS control ([4]; single inoculation 31.25 µM): significant increase in hemocyte density; Hemocyte density vs PBS control ([4]; single inoculation, other tested concentrations): No notable changes in hemocyte levels; MFC ([6]; C. gattii isolate 23): 12.5 µM; MIC ([6]; C. gattii isolate 23): 6.25 µM; MFC ([6]; C. gattii isolate 25): 12.5 µM; MIC ([6]; C. gattii isolate 25): 6.25 µM; MFC ([6]; C. gattii isolate 27): 12.5 µM; MIC ([6]; C. gattii isolate 27): 6.25 µM; MFC [6, 10]: 12.5 µM; MIC [6, 10]: 6.25 µM; CC50 ([7]; assumed, read-out: CC50 (G. mellonella larvae)): > 1000 µM; Changes in melanization or silk/cocoon production [7]: no visible changes in melanization or silk/cocoon production; Larval survival [7]: 100%; Stability of antifungal activity (MIC variation) [8]: No variation in MIC values
O=C1C(=O)c2cccnc2-c2ncccc21.O=C1C(=O)c2cccnc2-c2ncccc21.[Ag+].[O-][Cl+3]([O-])([O-])[O-] [Ag-phendione, [Ag(phendione)2]ClO4]	25	1.56	25	1.56	25	1.56	25	1.56	0.19	0.19	0.78	0.78	no alterations	non-toxic	100	no deaths or behavioral, dietary, or body weight changes	No significant differences	150	no deaths or changes in behavior, diet, or body weight	no differences	Hemocyte density vs PBS control ([4]; single inoculation, any concentration tested (15.6–1000 µM)): did not significantly affect hemocyte density; MFC ([6]; C. gattii isolate 23): 12.5 µM; MIC ([6]; C. gattii isolate 23): 1.56 µM; MFC ([6]; C. gattii isolate 25): 12.5 µM; MIC ([6]; C. gattii isolate 25): 1.56 µM; MFC ([6]; C. gattii isolate 27): 12.5 µM; MIC ([6]; C. gattii isolate 27): 1.56 µM; MFC [6, 10]: 12.5 µM; MIC [6, 10]: 1.56 µM; Changes in melanization or silk/cocoon production [7]: no visible changes in melanization or silk/cocoon production; Larval survival [7]: 100%; Stability of antifungal activity (MIC variation) [8]: No variation in MIC values
